Measurements as given in patent US5141931A, “5-Quinolinylpyridinones, cardiotonic compositions and methods” (Sterling Winthrop Inc., priority 1991, dated 1992).

Experiments:
[1] = molecular target: Phosphodiesterase III (PDE III); test: Phosphodiesterase III Inhibition; format: biochemical, mongrel dogs (thoracic aorta); details: dog thoracic aorta PDE III; substrate concentration 1 μM; triplicate
Experimental: Procedure 1 --Phosphodiesterase III Inhibition
Phosphodiesterase III (PDE III) was obtained by a slight modification of the methods of Thompson et al. [Advances in Cyclic Nucleotide Research vol. […] Thoracic aorta from mongrel dogs was minced with fine scissors and homogenized in 10 volumes of a buffer containing 10 mM tris acetate, pH 7.5, 2 mM magnesium chloride, 1mM dithiothreitol and 2000 units per mL of aprotinin. This and subsequent procedures were performed at 0-4°. The tissue was homogenized, the homogenate was sonicated and the resultant homogenate was centrifuged at 48,000 g for 30 minutes. The resulting supernatant fraction was applied to a diethylaminoethyl ether (DEAE) cellulose column that had been equilibrated with 35 or 70 mM sodium acetate containing 1 mM dithiothreitol at pH 6.5. After application of the sample, the column was washed with 2-3 bed volumes of the equilibration buffer and the PDE isozyme was eluted from the column using a continuous sodium acetate gradient to 1 molar. Fractions of approximately 5 mL were collected and assayed for cAMP and cGMP PDE activity at substrate concentrations of 1 μM. Appropriate fractions corresponding to peak three were pooled and dialyzed against 70 mM sodium acetate, 0.5 mM dithiothreitol for at least 20 hours.

mean arterial pressure = test: In vivo Vasodilation in the Rat; set-up: species or system normotensive male Sprague-Dawley rats; details: 0.4 mg/kg, orally by gavage
Experimental: Procedure 2--In vivo Vasodilation in the Rat
Normotensive male Sprague-Dawley rats of 325-425 g were anesthetized with sodium pentobarbital and an arterial catheter was placed in the abdominal aorta via the femoral artery. The catheter was tunneled subcutaneously, exteriorized at the nape of the neck, filled with heparinized saline and sealed with a stainless steel plug. The wounds were sutured and a suspension of penicillin G benzathine and penicillin G procaine was administered subcutaneously. All animals were allowed at least two days recovery prior to testing.
Rats were fasted 17 hours then placed into individual plexiglass boxes. The arterial catheter was connected to a Statham pressure transducer, positioned at the heart level, and the arterial pressure signal was recorded on a polygraph. The animals remained undisturbed for at least one hour to adapt to the testing environment. After the adaptation period, three baseline arterial pressure and heart rate measurements were taken at 15-minute intervals prior to the administration of the test drug. […] Arterial pressure and heart rate were measured at 15-minute intervals for the first hour and 30-minute intervals for the next four hours following the administration of drugs.
The data were analyzed by one-way analysis of variance for repeated measures. […]

Compound | IC50 [1] [nM] | area under the curve for reduction of mean arterial pressure (mean arterial pressure; conscious normotensive rats) [%] | statistical significance of reduction of mean arterial pressure (mean arterial pressure; Student Newman-Keuls test, probability of less than 5%, to the end of the test at six hours)
Cc1[nH]c(=O)c(C#N)cc1-c1ccncc1 [milrinone, reference compound] | 500 | – | –
Cc1[nH]c(=O)c(C#N)cc1-c1ccc2ncccc2c1 [Example 3, 1,2-Dihydro-6-methyl-2-oxo-5-(6-quinolinyl)-3-pyridinecarbonitrile] | 57 | 75 | statistical significance at all times to the end of the test at six hours
